Where two headings read alike, the source gives them in different places.
What was measured:
[1] = system: primary human subcutaneous preadipocytes; experiment: Human adipocyte differentiation (oil red-O staining); type: cell-based; details: human adipocyte differentiation in presence of insulin and dexamethasone
Method: Assays are carried out on primary human subcutaneous preadipocytes. Preadipocytes are inoculated at high density in preadipocyte medium (DME/F-10, 1:1, (v/v) containing 10% fetal calf serum) and maintained overnight for attachment. Drug treatment is initiated the second day by changing to serum free medium containing test compounds. The basal medium, which is used as the negative control, contains DME/F-10, biotin (33 μM), pantothenate (17 μM), insulin (100 nM), and dexamethasone (1 μM) and BRL 49653 is included as a positive control. The culture is maintained for 14 days with the compound treatment during the first five days. At the end of the culture, cells are fixed in 5% formalin and stained with oil red-O dye. The dye is extracted by isopropanol and quantitated by measure the optical density at 500 nm. EC50 values found in Table 1 reflect the human adipocyte differentiation of the compound in presence of insulin and dexamethasone.

[2] = target: T1, LBD (ligand binding domain) of the PPAR-γ receptor (Homo sapiens, UniProt P37231); experiment: Binding to PPAR-γ receptor (inhibition of 3H-PPAR-γ ligand binding to LBD); details: 8 nM 3H-PPAR ligand, 210 ng LBD/well, 2 hours
T1 sequence (P37231 238-503 limits assumed): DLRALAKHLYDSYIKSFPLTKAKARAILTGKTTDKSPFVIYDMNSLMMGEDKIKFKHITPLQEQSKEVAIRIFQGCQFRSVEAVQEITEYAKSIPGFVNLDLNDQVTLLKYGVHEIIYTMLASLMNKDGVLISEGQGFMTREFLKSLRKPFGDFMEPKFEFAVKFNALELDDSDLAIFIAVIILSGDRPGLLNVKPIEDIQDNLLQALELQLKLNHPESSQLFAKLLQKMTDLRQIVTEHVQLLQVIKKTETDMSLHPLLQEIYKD
Method: Binding to PPAR-γ Receptor Compounds are assayed for their ability to inhibit the binding of 3H-PPAR-γ ligand to the LBD (ligand binding domain) of the PPAR-γ receptor. Compounds are tested at 4 concentrations (1 μM to 1 nM) in triplicate. Compounds are incubated with H3-PPAR ligand (8 nM final concentration) and LBD (210 ng/assay well) in assay buffer (50 mM Tris pH8.0. 50 mM KCL, 2 mM EDTA, 0.3% CHAPS, 0.1 mg/ml BSA, 10 mM DTT) for 2 hours with gentle shaking. Non-specific binding is measured in the presence of 10 μM excess cold competitor. Bound ligand is separated using gel filtration plates (Edge Biosystems 31909) and captured on 96 well Wallac MicroBeta plates (1450-5150 by centrifugation for 5 minutes at 2500 rpm. Radioactivity is measured in a Wallac Micro Beta counter. Table 2 gives the IC50 values of compounds 1 and 2.

Zucker Obese Rats = experiment: Blood glucose lowering in diabetic rats; type: in vivo, rat; details: oral gavage once daily
Method: [The source words this procedure for another organism and reports this organism under the same test.] Male Zucker lean rats, 24-28 weeks of age, are fed high fat chow (AIN-93-M formulation) for two weeks to elevate blood glucose. At blood glucose concentrations over 160 mg/dl, a three day pre-study baseline is established by measuring blood glucose daily (at 0700-0800 hrs) via tail vein blood extraction and measurement using a glucometer. Animals are segregated into groups of 5 based on weights and baseline glucose. Compounds are then administered to the animals at various concentrations (30 mg compound/kg body weight or 10 mg compound/kg body weight). The drugs were suspended in 0.5% carboxymethylcellulose (Sigma) in a total gavage volume of 250 μL. Animals are dosed for seven days, once daily in the morning after blood glucose and weight determination. At the end of the seven-day period, the animals are euthanized by exsanguination after isofluorane anesthesia.

[3] = 14 day culture, compound first five days, read-out: EC50 Differentiation
[4] = read-out: EC50 Inhibition of Differentiation
[5] = Treatment Day 0 (baseline), 30 or 10 mg/kg (dose not given)

O=C(NCCCc1ccccc1)c1ccc(C[C@H](NCc2ccccc2)C(=O)O)cc1 [Compound 1, (2S)-2-[benzylamino]-3-{4-[N-(3-phenylpropyl)carbamoyl]phenyl}propanoic acid]
EC50 [1, 3]: 150 nM
EC50 [1, 4]: > 10000 nM
IC50 [2]: 1700 nM
Blood Glucose (mg/dl ± SEM) (Zucker Obese Rats; [5]): 133 ± 11 mg/dL
Blood Glucose (mg/dl ± SEM) (Zucker Obese Rats; Treatment Day 1): 134 ± 11 mg/dL
Blood Glucose (mg/dl ± SEM) (Zucker Obese Rats; Treatment Day 2): 105 ± 7 mg/dL
Blood Glucose (mg/dl ± SEM) (Zucker Obese Rats; Treatment Day 3): 105 ± 4 mg/dL
Blood Glucose (mg/dl ± SEM) (Zucker Obese Rats; Treatment Day 4): 97 ± 16 mg/dL
Blood Glucose (mg/dl ± SEM) (Zucker Obese Rats; Treatment Day 5): 113 ± 3 mg/dL
Blood Glucose (mg/dl ± SEM) (Zucker Obese Rats; Treatment Day 6): 105 ± 6 mg/dL
Blood Glucose (mg/dl ± SEM) (Zucker Obese Rats; Treatment Day 7): 104 ± 8 mg/dL

CN(C(=O)c1ccc(C[C@H](NCc2ccccc2)C(=O)O)cc1)C1CCCC1Sc1ccccc1 (stereo partly drawn) [Compound 2, (2S)-3-{4-[N-methyl-N(2-phenylthiocyclopentyl)carbamoyl]phenyl}-2-[benzylamino]propanoic acid]
EC50 [1, 3]: 175 nM
EC50 [1, 4]: > 10000 nM
IC50 [2]: 3300 nM
Blood Glucose (mg/dl ± SEM) (Zucker Obese Rats; [5]): 133 ± 11 mg/dL
Blood Glucose (mg/dl ± SEM) (Zucker Obese Rats; Treatment Day 1): 136 ± 5 mg/dL
Blood Glucose (mg/dl ± SEM) (Zucker Obese Rats; Treatment Day 2): 104 ± 1 mg/dL
Blood Glucose (mg/dl ± SEM) (Zucker Obese Rats; Treatment Day 3): 100 ± 9 mg/dL
Blood Glucose (mg/dl ± SEM) (Zucker Obese Rats; Treatment Day 4): 93 ± 6 mg/dL
Blood Glucose (mg/dl ± SEM) (Zucker Obese Rats; Treatment Day 5): 100 ± 4 mg/dL
Blood Glucose (mg/dl ± SEM) (Zucker Obese Rats; Treatment Day 6): 101 ± 5 mg/dL
Blood Glucose (mg/dl ± SEM) (Zucker Obese Rats; Treatment Day 7): 92 ± 6 mg/dL

CN(CCOc1ccc(CC2SC(=O)NC2=O)cc1)c1ccccn1 (stereo not drawn) [Rosiglitizone, reference compound]
EC50 [1, 3]: 100 nM
EC50 [1, 4]: > 10000 nM

Reference: patent US6713514B1, “PPAR-γ agonists as agents for the treatment of type II diabetes” (Lexicon Pharmaceuticals, Inc., priority 1999, dated 2004)
